Measurements reported in US20150197492A1, “NOVEL INDENO[1,2-c]QUINOLIN-11-ONE DERIVATIVES, PREPARATION METHOD AND APPLICATION THEREOF” (National Defense Medical Center, priority 2014, published 2015).

What was measured:
Experiment in all cases: cells
Format in all cases: cell-based
CCRF-CEM = CCRF-CEM (Leukemia), 10 μM, 48 hours
HL-60 (TB) = HL-60 (TB) (Leukemia), 10 μM, 48 hours
A549/ATCC = A549/ATCC (Non-Small Cell Lung Cancer), 10 μM, 48 hours
HOP-62 = HOP-62 (Non-Small Cell Lung Cancer), 10 μM, 48 hours
HOP-92 = HOP-92 (Non-Small Cell Lung Cancer), 10 μM, 48 hours
NCI-H23 = NCI-H23 (Non-Small Cell Lung Cancer), 10 μM, 48 hours
NCI-H322M = NCI-H322M (Non-Small Cell Lung Cancer), 10 μM, 48 hours
NCI-H460 = NCI-H460 (Non-Small Cell Lung Cancer), 10 μM, 48 hours
NCI-H522 = NCI-H522 (Non-Small Cell Lung Cancer), 10 μM, 48 hours
COLO 205 = COLO 205 (Colon Cancer), 10 μM, 48 hours
HCC-2998 = HCC-2998 (Colon Cancer), 10 μM, 48 hours
HCT-116 = HCT-116 (Colon Cancer), 10 μM, 48 hours
SF-268 = SF-268 (CNS Cancer), 10 μM, 48 hours
SF-539 = SF-539 (CNS Cancer), 10 μM, 48 hours
LOX IMVI = LOX IMVI (Melanoma), 10 μM, 48 hours
M14 = M14 (Melanoma), 10 μM, 48 hours
SK-MEL-2 = SK-MEL-2 (Melanoma), 10 μM, 48 hours
SK-MEL-5 = SK-MEL-5 (Melanoma), 10 μM, 48 hours
OVCAR-3 = OVCAR-3 (Ovarian Cancer), 10 μM, 48 hours
OVCAR-5 = OVCAR-5 (Ovarian Cancer), 10 μM, 48 hours
OVCAR-8 = OVCAR-8 (Ovarian Cancer), 10 μM, 48 hours
NCI/ADR-RES = NCI/ADR-RES (Ovarian Cancer), 10 μM, 48 hours
CAKI-1 = CAKI-1 (Renal Cancer), 10 μM, 48 hours
PC-3 = PC-3 (Prostate Cancer), 10 μM, 48 hours
DU-145 = DU-145 (Prostate Cancer), 10 μM, 48 hours
MDA-MB-231/ATCC = MDA-MB-231/ATCC (Breast Cancer), 10 μM, 48 hours
HS 578T = HS 578T (Breast Cancer), 10 μM, 48 hours
BT-549 = BT-549 (Breast Cancer), 10 μM, 48 hours

COc1nc2ccccc2c2c1-c1ccc(Cl)cc1C2=O [SJ-27, 6-Methoxy-9-chloro-11H-indeno[1,2-c]quinolin-11-one]
growth percentage (CCRF-CEM): 89.25% | growth percentage (HL-60 (TB)): 108.77% | growth percentage (A549/ATCC): 99.70% | growth percentage (HOP-62): 96.01% | growth percentage (HOP-92): 77.75% | growth percentage (NCI-H23): 93.26% | growth percentage (NCI-H322M): 99.80% | growth percentage (NCI-H460): 98.27% | growth percentage (NCI-H522): 95.89% | growth percentage (COLO 205): 108.91% | growth percentage (HCC-2998): 104.46% | growth percentage (HCT-116): 88.60% | growth percentage (SF-268): 113.64% | growth percentage (SF-539): 91.49% | growth percentage (LOX IMVI): 116.91% | growth percentage (M14): 96.50% | growth percentage (SK-MEL-2): 109.44% | growth percentage (SK-MEL-5): 98.51% | growth percentage (OVCAR-3): 111.89% | growth percentage (OVCAR-5): 96.81% | growth percentage (OVCAR-8): 98.75% | growth percentage (NCI/ADR-RES): 94.29% | growth percentage (CAKI-1): 90.65% | growth percentage (PC-3): 74.44% | growth percentage (DU-145): 121.06% | growth percentage (MDA-MB-231/ATCC): 74.61% | growth percentage (HS 578T): 92.74% | growth percentage (BT-549): 92.95%
